Experimental data published in the supplement of paper PMC11061612.

Key:
[1] = compound: CN(C)CCCOc1ccc(-c2ccc3ncc4c(c3c2)n(C2CCOCC2)c(=O)n4C)cn1 [AZD0156]; details: max 3 µM
Method in brief: (§1)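 Cancer cell lines were seeded in 1536-well plates in 7.5 μl DMEM/F12 or RPMI with 10% FBS, held 24 hours at 37°C and 5% CO2, then dosed for 72 hours (final DMSO typically 0.2%). Viability was read by CellTiter-Glo 2.0 luminescence and scaled between blank-well and DMSO-well means. The single-agent IC50 comes from dose responses fitted to a two-parameter logistic curve with a non-linear mixed effects model.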

[2] = compound: C[C@@H](Oc1cc(-c2cnn(C3CCNCC3)c2)cnc1N)c1c(Cl)ccc(F)c1Cl [Crizotinib]; details: max 10 µM
Method in brief: as §1

[3] = compound: Cc1c2c(nn1C)CSCc1cc(n(C)n1)CSc1cc(c3ccccc3c1)OCCCc1c(C(=O)O)n(C)c3c-2c(Cl)ccc13 [AZD5991]; details: max 1 µM
Method in brief: as §1

[4] = compound: CC(=O)Nc1cccc(-n2c(=O)n(C3CC3)c(=O)c3c(Nc4ccc(I)cc4F)n(C)c(=O)c(C)c32)c1 [Trametinib]; details: max 1 µM
Method in brief: as §1

[5] = compound: C[C@@H]1COCCN1C2=NC(=NC(=C2)C3(CC3)[S@](=N)(=O)C)C4=C5C=CNC5=NC=C4 [AZD6738]; details: max 10 µM
Method in brief: as §1

[6] = compound: CN(CC[C@H](CSC1=CC=CC=C1)NC2=C(C=C(C=C2)S(=O)(=O)NC(=O)C3=CC=C(C=C3)N4CCC(CC4)[C@H](C5=CC=CC=C5C6=CC=C(C=C6)Cl)O)S(=O)(=O)C(F)(F)F)CCO [AZD4320]; details: max 1 µM
Method in brief: as §1

[7] = compound: CC1(C)CCC(CN2CCN(c3ccc(C(=O)NS(=O)(=O)c4ccc(NCC5CCOCC5)c([N+](=O)[O-])c4)c(Oc4cnc5[nH]ccc5c4)c3)CC2)=C(c2ccc(Cl)cc2)C1 [Venetoclax]; details: max 1 µM
Method in brief: as §1

[8] = compound: C1CN(CCC1(C(=O)N[C@@H](CCO)C2=CC=C(C=C2)Cl)N)C3=NC=NC4=C3C=CN4 [Capivasertib]; details: max 10 µM
Method in brief: as §1

[9] = compound: Cc1nc(-c2cn3c(n2)-c2ccc(-c4cnn(C(C)(C)C(N)=O)c4)cc2OCC3)n(C(C)C)n1 [Taselisib]; details: max 10 µM
Method in brief: as §1

[10] = compound: Cc1cc2ncnn2cc1Nc1ncc2c(n1)n(C1CCOCC1)c(=O)n2C [AZD7648]; details: max 10 µM
Method in brief: as §1

[11] = compound: C[C@@H](c1ccc2nccn2c1)n1nnc2ncc(-c3cnn(C)c3)nc21 [Savolitinib]; details: max 1 µM
Method in brief: as §1

[12] = compound: CCc1c2c(nc3ccc(O)cc13)-c1cc3c(c(=O)n1C2)COC(=O)[C@]3(O)CC [SN-38]; details: max 0.3 µM
Method in brief: as §1

[13] = compound: CC(=O)c1c(C)c2cnc(Nc3ccc(N4CCNCC4)cn3)nc2n(C2CCCC2)c1=O [Palbociclib]; details: max 10 µM
Method in brief: as §1

[14] = compound: COc1cc2ncnc(Nc3ccc(F)c(Cl)c3)c2cc1OCCCN1CCOCC1 [Gefitinib]; details: max 10 µM
Method in brief: as §1

[15] = compound: CC1=C(C(=CC=C1)Cl)NC(=O)C2=CN=C(S2)NC3=CC(=NC(=N3)C)N4CCN(CC4)CCO [Dasatinib]; details: max 2 µM
Method in brief: as §1

[16] = compound: Cn1cnc2c(F)c(Nc3ccc(Br)cc3Cl)c(C(=O)NOCCO)cc21 [Selumetinib]; details: max 10 µM
Method in brief: as §1

[17] = compound: CS(=O)(=O)CCNCc1ccc(-c2ccc3ncnc(Nc4ccc(OCc5cccc(F)c5)c(Cl)c4)c3c2)o1 [Lapatinib]; details: max 10 µM
Method in brief: as §1

[18] = compound: CCN(CCO)CCCOc1ccc2c(Nc3cc(CC(=O)Nc4cccc(F)c4)[nH]n3)ncnc2c1 [AZD2811]; details: max 1 µM
Method in brief: as §1

[19] = compound: C[C@@H](Nc1cc(F)cc(F)c1)c1cc(C(=O)N(C)C)cc2c(=O)cc(N3CCOCC3)oc12 [AZD8186]; details: max 3 µM
Method in brief: as §1

[20] = compound: COc1cccc2c1C(=O)c1c(O)c3c(c(O)c1C2=O)C[C@@](O)(C(=O)CO)C[C@@H]3O[C@H]1C[C@H](N)[C@H](O)[C@H](C)O1 [Doxorubicin]; details: max 1 µM
Method in brief: as §1

[21] = compound: COc1nnc2ccc(N3CCC(c4ccc(OCCN5CCN(C)C(=O)[C@H]5C)cc4)CC3)nn12 [AZD5153]; details: max 1 µM
Method in brief: as §1

[22] = compound: CC(C)n1c(=O)n(C)c2cnc3cc(F)c(-c4ccc(OCCCN5CCCCC5)nc4)cc3c21 [AZD1390]; details: max 0.3 µM
Method in brief: as §1

[23] = compound: CC1=CN2[C@@H](C1)C=NC3=CC(=C(C=C3C2=O)OC)OCCCCCOC4=C(C=C5C(=C4)N=C[C@@H]6CC(=CN6C5=O)C)OC [SG3199]; details: max 0.001 µM
Method in brief: as §1

[24] = compound: C=CCn1c(=O)c2cnc(Nc3ccc(N4CCN(C)CC4)cc3)nc2n1-c1cccc(C(C)(C)O)n1 [AZD1775]; details: max 3 µM
Method in brief: as §1

[25] = compound: COc1cccc(OCCCN)c1-c1cc(Nc2cnc(C#N)cn2)n[nH]1 [Prexasertib]; details: max 1 µM
Method in brief: as §1

[26] = compound: COc1cc(Nc2ncc3c(n2)-c2ccc(Cl)cc2C(c2c(F)cccc2OC)=NC3)ccc1C(=O)O [Alisertib]; details: max 10 µM
Method in brief: as §1

[27] = compound: O=C(c1cc(Cc2n[nH]c(=O)c3ccccc23)ccc1F)N1CCN(C(=O)C2CC2)CC1 [Olaparib]; details: max 10 µM
Method in brief: as §1

Cell Line	IC50, cell viability 72 h [1]	IC50, cell viability 72 h [2]	IC50, cell viability 72 h [3]	IC50, cell viability 72 h [4]	IC50, cell viability 72 h [5]	IC50, cell viability 72 h [6]	IC50, cell viability 72 h [7]	IC50, cell viability 72 h [8]	IC50, cell viability 72 h [9]	IC50, cell viability 72 h [10]	IC50, cell viability 72 h [11]	IC50, cell viability 72 h [12]	IC50, cell viability 72 h [13]	IC50, cell viability 72 h [14]	IC50, cell viability 72 h [15]	IC50, cell viability 72 h [16]	IC50, cell viability 72 h [17]	IC50, cell viability 72 h [18]	IC50, cell viability 72 h [19]	IC50, cell viability 72 h [20]	IC50, cell viability 72 h [21]	IC50, cell viability 72 h [22]	IC50, cell viability 72 h [23]	IC50, cell viability 72 h [24]	IC50, cell viability 72 h [25]	IC50, cell viability 72 h [26]	IC50, cell viability 72 h [27]
8-MG-BA (Glioblastoma)	> 3 µM	8.8 µM	0.676 µM	> 1 µM	2.24 µM	> 1 µM	> 1 µM	> 10 µM	3.73 µM	> 10 µM	> 1 µM	0.0154 µM	> 10 µM	> 10 µM	0.255 µM	> 10 µM	8.81 µM	> 1 µM	> 3 µM	0.393 µM	0.136 µM	> 0.3 µM	> 0.001 µM	0.43 µM	0.0211 µM	> 10 µM	> 10 µM
A3-KAW (B-Cell Non-Hodgkin's Lymphoma)	1.35 µM	3.98 µM	0.0217 µM	0.997 µM	0.355 µM	> 1 µM	> 1 µM	> 10 µM	> 10 µM	> 10 µM	> 1 µM	0.00318 µM	1.3 µM	> 10 µM	> 2 µM	> 10 µM	> 10 µM	0.887 µM	> 3 µM	0.0863 µM	0.0111 µM	> 0.3 µM	> 0.001 µM	0.117 µM	0.00737 µM	0.0686 µM	8.45 µM
A498 (Kidney Carcinoma)	> 3 µM	> 10 µM	> 1 µM	> 1 µM	> 10 µM	> 1 µM	> 1 µM	4.66 µM	9.45 µM	> 10 µM	> 1 µM	> 0.3 µM	> 10 µM	> 10 µM	> 2 µM	> 10 µM	> 10 µM	> 1 µM	0.425 µM	> 1 µM	> 1 µM	> 0.3 µM	> 0.001 µM	1.69 µM	0.201 µM	> 10 µM	> 10 µM
A549 (Lung Adenocarcinoma)	> 3 µM	6.62 µM	> 1 µM	0.0297 µM	6.07 µM	> 1 µM	> 1 µM	6.93 µM	1.72 µM	> 10 µM	> 1 µM	0.07 µM	8.16 µM	> 10 µM	0.17 µM	1.05 µM	2.75 µM	0.777 µM	> 3 µM	0.309 µM	0.0952 µM	> 0.3 µM	> 0.001 µM	2.46 µM	> 1 µM	2.34 µM	> 10 µM
